Experimental data taken from patent publication US8134015B2, “Compound inhibiting in vivo phosphorous transport and medicine containing the same” (Kyowa Hakko Kirin Co., Ltd., priority 2003, dated 2012).

Molecular target: T1, rat NaPi-2b (Rattus norvegicus, UniProt Q9JJ09)
T1 construct: expressed in transfected cells; host or cells: Xenopus oocytes injected with cRNA
T1 sequence (Q9JJ09 1-695): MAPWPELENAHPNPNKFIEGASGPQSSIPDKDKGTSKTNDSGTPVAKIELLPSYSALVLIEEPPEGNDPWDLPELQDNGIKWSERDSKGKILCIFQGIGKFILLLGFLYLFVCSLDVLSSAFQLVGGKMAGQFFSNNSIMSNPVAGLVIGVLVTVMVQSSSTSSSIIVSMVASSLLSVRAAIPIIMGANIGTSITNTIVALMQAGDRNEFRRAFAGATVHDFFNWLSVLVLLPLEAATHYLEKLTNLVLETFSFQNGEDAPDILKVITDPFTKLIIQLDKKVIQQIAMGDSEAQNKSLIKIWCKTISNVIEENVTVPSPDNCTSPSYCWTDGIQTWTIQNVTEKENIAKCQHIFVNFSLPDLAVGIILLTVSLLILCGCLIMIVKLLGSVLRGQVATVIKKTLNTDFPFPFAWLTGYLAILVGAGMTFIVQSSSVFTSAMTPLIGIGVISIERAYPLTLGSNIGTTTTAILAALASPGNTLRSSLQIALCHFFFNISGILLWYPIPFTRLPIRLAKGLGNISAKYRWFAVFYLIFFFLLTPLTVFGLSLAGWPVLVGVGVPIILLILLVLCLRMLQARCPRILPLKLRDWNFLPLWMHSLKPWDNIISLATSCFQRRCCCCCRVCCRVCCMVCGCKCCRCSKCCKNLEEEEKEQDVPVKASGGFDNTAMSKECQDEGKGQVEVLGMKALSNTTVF
Assay: Sodium-dependent phosphate uptake of Xenopus oocytes which expressed NaPi-2b (32P)
Assay type: cell-based
Details: for inhibition at 300 µM: phosphate uptake, oocytes expressing rat NaPi-2b, determined from inhibition curve; for IC50: Xenopus oocytes expressing rat NaPi-2b, 32P radioactive phosphorus, read-out: IC50 (phosphate uptake inhibitory activity)
Procedure, shortened: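 Inhibition at 300 μM and 100 μM was read off one inhibition curve of 32P phosphate uptake. Uptake was measured in Xenopus oocytes cultured 2 days after injection of cRNA for cloned rat NaPi-2b.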

inhibition at 300 µM	IC50	Structure (SMILES)
36.1%	–	CN1CCCN(c2ccc3nc(-c4cccc(CSCCO)c4)n(/N=C/c4ccc(Cl)c(C(F)(F)F)c4)c(=O)c3c2)CC1 [Compound 932, 3-[(4-Chloro-3-trifluoromethyl-benzylidene)-amino]-2-[3-(2-hydroxy-ethylsulfanylmethyl)-phenyl]-6-(4-methyl-[1,4]diazepan-1-yl)-3 H-quinazolin-4-one]
–	7.54 µM	CCc1ccc(C(=O)Nc2ccc(Br)cc2C(=O)N/N=C/c2cccc(F)c2)cc1 [Compound 178, N-[4-Bromo-2-(3-fluoro-benzylidene-hydrazinocarbonyl)-phenyl]-4-ethyl-benzamide]
–	6.45 µM	CCN(CC)CCN(C)Cc1cccc(C(=O)Nc2ccc(Cl)cc2C(=O)N/N=C/c2cccc(O)c2)c1 [Compound 387, N-[4-Chloro-2-(3-hydroxy-benzylidene-hydrazinocarbonyl)-phenyl]-3-{[(2-diethylamino-ethyl)-methyl-amino]-methyl}-benzamide]
33.1%	–	O=C(Nc1ccccc1C(=O)N/N=C/c1cccc(F)c1)c1ccccc1F [Compound 237, 2-Fluoro-N-[2-(3-fluoro-benzylidene-hydrazinocarbonyl)-phenyl]-benzamide]
–	< 3 µM	CN(C)CCn1nnnc1SCc1cccc(C(=O)Nc2ccc(Cl)cc2C(=O)N/N=C/c2cccc(F)c2)c1 [Compound 462, N-[4-Chloro-2-(3-fluoro-benzylidene-hydrazinocarbonyl)-phenyl]-3-[1-(2-dimethylamino-ethyl)-1H-tetrazol-5-ylsulfanylmethyl]-benzamide]
–	0.62 µM	COc1ccc(/C=N/NC(=O)c2cc(Cl)ccc2NC(=O)c2ccc(OC)c(OC)c2)cc1Br [Compound 98, N-[2-(3-Bromo-4-methoxy-benzylidene-hydrazinocarbonyl)-4-chloro-phenyl]-3,4-dimethoxy-benzamide]
–	7.15 µM	COc1ccc(C(=O)Nc2ccccc2C(=O)N/N=C/C(C)=C/c2ccccc2)cc1OC [Compound 7, 3,4-Dimethoxy-N-[2-(2-methyl-3-phenyl-allylidene-hydrazinocarbonyl)-phenyl]-benzamide]
–	32.4 µM	CCN(CCO)Cc1ccc(C(=O)Nc2ccc(Cl)cc2C(=O)N/N=C/c2cccc(O)c2)cc1 [Compound 440, N-[4-Chloro-2-(3-hydroxy-benzylidene-hydrazinocarbonyl)-phenyl]-4-{[ethyl-(2-hydroxy-ethyl)-amino]-methyl}-benzamide]
–	18 µM	COc1cccc(/C=N/NC(=O)c2cc(Br)ccc2NC(=O)c2ccc(CN(CC(C)O)CC(C)O)cc2)c1 (centres unmarked) [Compound 723, 4-{[Bis-(2-hydroxy-propyl)-amino]-methyl}-N-[4-bromo-2-(3-methoxy-benzylidene-hydrazinocarbonyl)-phenyl]-benzamide]
–	3.07 µM	O=C(Nc1ccc(Br)cc1C(=O)N/N=C/c1cccc(F)c1)c1ccco1 [Compound 151, Furan-2-carboxylic acid [4-bromo-2-(3-fluoro-benzylidene-hydrazinocarbonyl)-phenyl]-amide]
44.7%	–	Cc1cccc(/C=N/NC(=O)c2cc(Cl)ccc2NC(=O)c2cccc(CN(C)CCCCCCN(C)Cc3cccc(C(=O)Nc4ccc(Cl)cc4C(=O)N/N=C/c4cccc(C)c4)c3)c2)c1 [Compound 705, N1-[4-Chloro-2-({2-[(E)-1-(3-methylphenyl)methylidene]hydrazino}carbonyl}phenyl}-3-{[{6-[(3-{[4-chloro-2-({2-[(E)-1-(3-methylphenyl)methylidene]hydrazino}carbonyl}-anilino}carbonyl}benzyl}(methyl)amino)hexyl)(methyl)amino]methyl]-benzamide]
–	< 3 µM	O=C(Nc1ccc(Br)cc1C(=O)N/N=C/c1ccc(Cl)c(C(F)(F)F)c1)c1cccc(C[S+]([O-])CCO)c1 (centres unmarked) [Compound 679, N-[4-Bromo-2-(4-chloro-3-trifluoromethyl-benzylidene-hydrazinocarbonyl)-phenyl]-3-(2-hydroxy-ethanesulfinylmethyl)-benzamide]
–	8.55 µM	CN(CCO)Cc1cccc(C(=O)Nc2ccc(Cl)cc2C(=O)N/N=C/c2ccc(F)cc2)c1 [Compound 395, N-[4-Chloro-2-(4-fluoro-benzylidene-hydrazinocarbonyl)-phenyl]-3-{[(2-hydroxy-ethyl)-methyl-amino]-methyl}-benzamide]
73.3%	–	CN(CCCNCc1ccc(C(=O)Nc2ccc(Br)cc2C(=O)N/N=C/c2cccc(F)c2)cc1)c1ccccc1 [Compound 760, N-[4-Bromo-2-(3-fluoro-benzylidene-hydrazinocarbonyl)-phenyl]-4-{[3-(methyl-phenyl-amino)-propylamino]-methyl}-benzamide]
–	1.48 µM	O=C(Nc1ccc(Br)cc1C(=O)N/N=C/c1cccc(F)c1)c1ccno1 [Compound 510, Isoxazole-5-carboxylic acid [4-bromo-2-(3-fluoro-benzylidene-hydrazinocarbonyl)-phenyl]-amide]
33.6%	–	COc1ccc(C(=O)Nc2ccccc2C(=O)N/N=C/c2ccc(-c3ccccc3)cc2)cc1OC [Compound 233, N-[2-(Biphenyl-4-ylmethylene-hydrazinocarbonyl)-phenyl]-3,4-dimethoxy-benzamide]
–	0.63 µM	O=C(Nc1ccc(Cl)cc1C(=O)N/N=C/c1ccc(F)cc1)c1ccccn1 [Compound 360, Pyridin-2-carboxylic acid [4-chloro-2-(4-fluoro-benzylidene-hydrazinocarbonyl)-phenyl]-amide]
–	7.41 µM	Cc1ccc(C)c(/C=N/NC(=O)c2ccccc2NC(=O)c2ccccc2F)c1 [Compound 46, N-[2-(2,5-Dimethyl-benzylidene-hydrazinocarbonyl)-phenyl]-2-fluoro-benzamide]
–	27.1 µM	CN(CCO)Cc1ccc(C(=O)Nc2ccc(Cl)cc2C(=O)N/N=C/c2cccc(O)c2)cc1 [Compound 420, N-[4-Chloro-2-(3-hydroxy-benzylidene-hydrazinocarbonyl)-phenyl]-4-{[(2-hydroxy-ethyl)-methyl-amino]-methyl}-benzamide]
–	6.93 µM	COc1ccc(/C=N/NC(=O)c2c(C)csc2NC(=O)c2cccc(CN3CCC(N4CCCCC4)CC3)c2)cc1 [Compound 574, 3-[1,4′]Bipiperidinyl-1′-ylmethyl-N-[3-(4-methoxy-benzylidene-hydrazinocarbonyl)-4-methyl-thiophen-2-yl]-benzamide]
–	8.05 µM	Cc1ccc(/C=N/NC(=O)c2cscc2NC(=O)c2cccc(CN3CCN(CCO)CC3)c2)cc1C [Compound 982, N-[4-(3,4-Dimethyl-benzylidene-hydrazinocarbonyl)-thiophen-3-yl]-3-[4-(2-hydroxy-ethyl)-piperazin-1-ylmethyl]-benzamide]
–	0.72 µM	CCN(CC)CCN(Cc1cccc(C(=O)Nc2sc3c(c2C(=O)N/N=C/c2ccc(C)c(C)c2)CCCC3)c1)C(C)=O [Compound 652, 3-{[Acetyl-(2-diethylamino-ethyl)-amino]-methyl}-N-[3-(3,4-dimethyl-benzylidene-hydrazinocarbonyl)-4,5,6,7-tetrahydro-benzo[b]thiophen-2-yl]-benzamide]
–	2.55 µM	O=C(O)CCSCc1cccc(C(=O)Nc2ccc(N3CCCCC3)cc2C(=O)N/N=C/c2ccc(F)cc2)c1 [Compound 888, 3-{3-[2-(4-Fluoro-benzylidene-hydrazinocarbonyl)-4-piperidin-1-yl-phenylcarbamoyl]-benzylsulfanyl}-propionic acid]
